Counter-ions that a name gives are not always drawn.
Target: T1, human transferrin (hTf) (Homo sapiens, UniProt P02787)
T1 construct: gene TF
Assay: intrinsic fluorescence quenching, modified Stern-Volmer
Type: binding
Conditions: pH 7.4, 50 mM sodium phosphate, 301 K, 4 uM hTf, excitation 280 nm, n = 0.99; double-log
Excerpt: intrinsic fluorescence quenching, modified Stern-Volmer on human transferrin (hTf)

T1 sequence (P02787 20-698): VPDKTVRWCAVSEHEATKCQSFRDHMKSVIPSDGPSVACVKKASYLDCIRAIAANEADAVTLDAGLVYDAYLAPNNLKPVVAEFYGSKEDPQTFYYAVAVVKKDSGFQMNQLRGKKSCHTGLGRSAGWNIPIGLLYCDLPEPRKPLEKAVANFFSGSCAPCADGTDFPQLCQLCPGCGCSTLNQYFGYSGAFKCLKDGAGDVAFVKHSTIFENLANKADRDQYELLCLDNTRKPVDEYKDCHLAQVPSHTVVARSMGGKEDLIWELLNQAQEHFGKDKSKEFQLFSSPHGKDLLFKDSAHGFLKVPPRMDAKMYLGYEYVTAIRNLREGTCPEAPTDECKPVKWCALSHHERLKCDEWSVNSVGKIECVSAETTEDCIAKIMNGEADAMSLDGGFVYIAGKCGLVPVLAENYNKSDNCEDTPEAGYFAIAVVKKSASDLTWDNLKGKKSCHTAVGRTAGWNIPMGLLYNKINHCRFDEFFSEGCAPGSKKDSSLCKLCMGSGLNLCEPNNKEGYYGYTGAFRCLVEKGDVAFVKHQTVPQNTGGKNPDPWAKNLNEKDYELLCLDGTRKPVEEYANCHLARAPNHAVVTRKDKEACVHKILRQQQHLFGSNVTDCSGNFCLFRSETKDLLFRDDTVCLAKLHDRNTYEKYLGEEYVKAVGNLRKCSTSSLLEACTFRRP

With `CCN(C)C(=O)Oc1cccc([C@H](C)N(C)C)c1` [Rivastigmine tartrate] the “K (10^4 M^-1)” value was 5.3 10^4 M^-1.

— paper PMC6770857, “Unraveling Binding Mechanism of Alzheimer’s Drug Rivastigmine Tartrate with Human Transferrin: Molecular Docking and Multi-Spectroscopic Approach towards Neurodegenerative Diseases” (Biomolecules, 2019)
